Laboratory results taken from patent US6680025B2, “Device and method for photoactivation” (Cerus Corporation, priority 1989, dated 2004).

How the values were obtained:
[1] = test system: Taq I DNA polymerase; assay: Primer extension on site-specific monoadducted 71-mer, Taq polymerase; format: biochemical, Thermus aquaticus; details: for Taq polymerase extension on 71-mer monoadduct template: 55° C., single extension
Experimental: In this experiment, monoadducted 71-mers (as well as unmodified 71-mers) were used in template-dependent enzymatic extension. AMIP, AMDMIP, and MIP 71-mer monoadducts were made as in Example 42. Extension was carried out as in Example 43 except that in this experiment, Taq I DNA polymerase, a thermostable DNA polymerase isolated from Thermus aquaticus (Stratagene, Inc., La Jolla, Calif.) was assessed for its ability to read past isopsoralens.
The reaction mixture was in 80 μl total volume and comprised 1×Taq buffer, 200 μM each of dNTP's, 0.05 units of Taq per μl of reaction volume; 1×10^−9 M in 71-mer MA; 1×10^−8 M in ^32P-labelled SK-39. Each reaction was set up with everything except Taq polymerase. The samples were initially heated to 95° C. for 5 mins, then incubated at 55° C. for 3 mins. The extension reaction was initiated by addition of Tas polymerase. At the indicated time points (0.5, 1.0, 5.0 mins), 20 μl of the reaction mix was removed to a tube containing 1 μl of 0.5 M EDTA to stop the reaction. All products were analyzed on a 20% polyacrylamide, 7 M urea gel followed by autoradiography.
This experiment investigated whether blocking of Tag polymerase by monoadducts is complete or whether monoadducts can be bypassed by the enzyme. In order to view the process of bypass syrthesis, it is necessary to cycle the extension reaction of the primer with the 71-mer templates. Cycling in this case consists of mixing the primer with the 71-mer template, adding Taq polymerase and appropriate reagents, extending, heating to induce strand separation, reannealing of the primer to the 71-mer template, extending again, and subsequent stand separation. This process can be repeated as necessary. During this process, only the complement of the 71-mer template is being synthesized. It is accumulating in a linear fashion with the number of thermal cycles (in contrast to PCR where both strands are being synthesized and accumulate geometrically).
The templates and reaction conditions were as in Example 44 above except that three samples were used for each monoadduct and each sample was tested under different conditions:
Samples (1): one sample for each monoadduct was used to carry out extension at 55° C. as in Example 43;
Samples (2): one sample for each monoadduct was used to carry out extension by the following series of steps: denaturing at 95° C.; incubating for 30 seconds at 55° C.; adding Taq polymerase for 3 minutes at 55° C.; cooling the reaction for 1 minute at 7° C.; stopping the reaction with EDTA for one minute at 95° C.
Samples (3): one sample for each monoadduct was used to carry out extension by repeating the following series of steps nine times: denaturing at 95° C.; incubating for 30 seconds at 55° C.; adding Taq polymerase for 3 minutes at 55° C.; cooling the reaction for 1 minute at 7° C. At the end, the reaction is stopped with EDTA for one minute at 95° C.
To investigate this question further, a new 5-MIP monoadducted 71-mer was prepared by repurification of the HPLC purified 5-MIP ronoadducted 15-mer by PAGE. In this way, more of the non-monoadducted 15-mer was removed prior to ligation. The purified 71-mer was then used as template in an extension experiment as described in Example 45. After 10 cycles, there was still evidence of extension product (FIG. 34).
Monoadducted 71-mer was constructed as described, but for HMT. Extension was carried out and analyzed as before on PAGE. […] Full length 71-mer is not made and a shorter strand corresponding to the position of the HMT adduct was made.

[2] = molecular target: Taq polymerase (Thermus aquaticus, UniProt P19821); assay: Taq primer extension of 71-mer after random addition of compound or photoproduct; format: biochemical; details: for extension of 71-mer irradiated with compound: AMIP 200 μg/ml, AMDMIP 200 μg/ml, irradiated 15 minutes CE-I at 25° C.
Taq polymerase, sequence (P19821 whole entry): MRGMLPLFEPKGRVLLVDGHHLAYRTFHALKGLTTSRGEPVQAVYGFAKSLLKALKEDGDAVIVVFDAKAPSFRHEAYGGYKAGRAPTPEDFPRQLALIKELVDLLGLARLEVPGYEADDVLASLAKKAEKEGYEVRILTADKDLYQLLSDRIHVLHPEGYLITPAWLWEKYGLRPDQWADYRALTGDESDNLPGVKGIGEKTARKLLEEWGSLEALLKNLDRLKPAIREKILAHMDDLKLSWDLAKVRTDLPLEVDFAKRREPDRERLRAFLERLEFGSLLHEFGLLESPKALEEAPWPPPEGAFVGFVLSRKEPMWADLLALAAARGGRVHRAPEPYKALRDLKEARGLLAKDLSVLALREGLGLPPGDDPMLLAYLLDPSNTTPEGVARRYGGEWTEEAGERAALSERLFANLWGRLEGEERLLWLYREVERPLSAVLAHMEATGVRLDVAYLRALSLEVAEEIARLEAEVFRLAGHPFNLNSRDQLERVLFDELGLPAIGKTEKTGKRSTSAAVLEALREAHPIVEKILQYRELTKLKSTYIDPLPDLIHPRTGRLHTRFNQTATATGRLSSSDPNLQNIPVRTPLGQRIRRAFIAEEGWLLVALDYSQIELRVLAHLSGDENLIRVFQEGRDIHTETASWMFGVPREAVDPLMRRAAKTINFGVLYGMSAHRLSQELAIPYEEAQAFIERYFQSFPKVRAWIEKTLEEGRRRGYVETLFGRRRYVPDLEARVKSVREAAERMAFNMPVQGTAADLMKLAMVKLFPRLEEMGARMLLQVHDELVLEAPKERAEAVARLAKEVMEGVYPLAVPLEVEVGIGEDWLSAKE
From the text: In this experiment, the ability of AMIP, AMDMIP and MIF to block replication of 71-mer is investigated by randomly adding each compound to the 71-mer. Of course, addition may only be random in the sense that one or more adducts may be formed with any one strand of nucleic acid. The actual placement of the isopsoralen may be governed by preferential binding at particular sites (e.g. A:T). In addition to blockage by random adducts, photoproducts of the various isopsoralens may be providing an inhibitory effect. No attempt to separate the effects of photoproduct from the effects of covalent adducts on the 71-mer template was made in this series of experiments.
In these experiments, the 71-mer template (10^−9 M) was primed with ^32P-SK-39 (10^−8) and extended with Taq polymerase in a total volume of […]. The dNTP concentration was 200 μM. In the control samples, the 71-mer, the primer, and the dNTPs were mixed in Taq buffer in a volume of 18 p1. These samples were initially denatured at 95° C. for 5 minutes, followed by equilibration at 55° C. for 3 minutes. Taq enzyme was then added (0.5 units) and the extension reaction was carried out for 5 minutes at 55° C. The reaction was stopped by making the solution 10 mM in EDTA. In another set of samples, the 71-mer in 10 μl was mixed with either AMIP (200 μg/ml), AMDMIP (200 μg/ml), or MIP (60 μg/ml). Half of these samples were irradiated for 15 minutes on the CE-I device at 25° C. The other half was kept in the dark as controls. These samples were then mixed with the primer and dNTPs as before, and were subjected to the same thermal profile and extension reactions as the samples that were described earlier. The results were examined by PAGE. The extended product bands were identified by autoradiography, excised and counted (data not shown). […]
71-mer was made up in Taq buffer. Samples were prepared as follows: 1) dark control samples were not subjected to activating light; 2) 10 μl samples of the 71-mer (2×10^−9 M) were irradiated in the presence of 200 μg/ml AMDMIP, and 3) 10 μl samples of a 200 μg/ml solution of AMDMIP were irradiated in the absence of the 71-mer target. All irradiations were carried out with the CE-I device at 25° C. After preparing the above samples, unirradiated AMDMIP was added to one set of the dark control samples. Another set of dark controls received irradiated AMDMIP. ^32P-SK-39 primer and dNTPs were then added to all samples and the volume was adjusted to 18 μl. These samples were denatured at 95° C. for 5 minutes, followed by equilibration at 55° C. for 3 minutes. Taq polymerase was then added and the extension reaction was carried out for 5 minutes. The reaction was stopped by bringing the samples to 10 mM in EDTA. The final concentrations of all reagents during the extension reactions were: […]

[3] = PAGE-repurified monoadducted 71-mer, after 10 cycles

SMILES | Taq polymerase extension on 71-mer monoadduct template [1] | extension of 71-mer irradiated in the presence of AMDMIP ([2]; 200 μg/ml during irradiation, CE-I at 25° C.) | extension of 71-mer, dark control with unirradiated AMDMIP ([2]; AMDMIP 100 μg/ml final) | extension of 71-mer irradiated with compound ([2]; MIP 60 μg/ml) | full length extension product as share of total extension products [1, 3] [%] | truncated extension products as share of total [1, 3] [%] | amount of full length product versus control samples ([2]; MIP 60 μg/ml, irradiated 15 minutes CE-I)
Cc1oc2ccc3c(C)cc(=O)oc3c2c1CN [AMDMIP, 4′-Aminomethyl-4,5′-dimethylisopsoralen] | stops at positions that are shorter than the full length 71-mer product | no extension products at all | full length extension product | not extended at all | – | – | –
NCc1cc2occc2c2oc(=O)ccc12 [AMIP, 5-Aminomethylisopsoralen] | stops at positions that are shorter than the full length 71-mer product | – | – | not extended at all | – | – | –
Cc1cc2occc2c2oc(=O)ccc12 [MIP, 5-Methylisopsoralen] | stops at positions that are shorter than the full length 71-mer product | – | – | some full length extension product and a minor truncated product | 2.3 | 97.7 | half of that observed with the control samples
